In ChEMBL document CHEMBL4507297, “Data for DCP probe PF-04457845” (2021):

Columns and labels:
[1] = target: D(3) dopamine receptor (Homo sapiens) (UniProt P35462); test: D3 (h) CEREP ligand profiling; details: Compound concentration 10.0 uM
[2] = target: T1, 5-hydroxytryptamine receptor 3A (Homo sapiens) (UniProt P46098); test: 5-HT3 (h) CEREP ligand profiling; details: Compound concentration 10.0 uM
T1 sequence (whole entry): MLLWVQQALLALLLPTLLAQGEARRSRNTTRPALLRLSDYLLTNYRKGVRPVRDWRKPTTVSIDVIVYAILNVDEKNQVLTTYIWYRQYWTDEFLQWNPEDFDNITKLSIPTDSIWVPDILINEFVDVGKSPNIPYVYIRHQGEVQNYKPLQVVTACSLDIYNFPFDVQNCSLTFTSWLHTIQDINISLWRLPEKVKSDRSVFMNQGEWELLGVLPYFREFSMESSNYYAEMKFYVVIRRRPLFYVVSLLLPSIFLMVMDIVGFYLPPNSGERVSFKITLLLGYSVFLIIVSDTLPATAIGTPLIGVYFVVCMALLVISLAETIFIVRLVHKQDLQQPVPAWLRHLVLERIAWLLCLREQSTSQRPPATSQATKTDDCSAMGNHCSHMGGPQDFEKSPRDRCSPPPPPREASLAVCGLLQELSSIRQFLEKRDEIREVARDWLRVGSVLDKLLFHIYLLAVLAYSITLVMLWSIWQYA

[3] = target: Delta-type opioid receptor (Homo sapiens) (UniProt P41143); details: Compound concentration 10.0 uM
[4] = target: 5-hydroxytryptamine receptor 1A (Homo sapiens) (UniProt P08908); details: Compound concentration 10.0 uM
[5] = target: Mu-type opioid receptor (Homo sapiens) (UniProt P35372); test: mu (h) (MOP) (agonist site) CEREP ligand profiling; details: Compound concentration 10.0 uM
[6] = target: Type-1 angiotensin II receptor (Homo sapiens) (UniProt P30556); test: AT1 (h) CEREP ligand profiling; details: Compound concentration 10.0 uM
[7] = target: T2, 5-hydroxytryptamine receptor 2C (Homo sapiens) (UniProt P28335); test: 5-HT2C (h) (agonist site) CEREP ligand profiling; details: Compound concentration 10.0 uM
T2 sequence (whole entry): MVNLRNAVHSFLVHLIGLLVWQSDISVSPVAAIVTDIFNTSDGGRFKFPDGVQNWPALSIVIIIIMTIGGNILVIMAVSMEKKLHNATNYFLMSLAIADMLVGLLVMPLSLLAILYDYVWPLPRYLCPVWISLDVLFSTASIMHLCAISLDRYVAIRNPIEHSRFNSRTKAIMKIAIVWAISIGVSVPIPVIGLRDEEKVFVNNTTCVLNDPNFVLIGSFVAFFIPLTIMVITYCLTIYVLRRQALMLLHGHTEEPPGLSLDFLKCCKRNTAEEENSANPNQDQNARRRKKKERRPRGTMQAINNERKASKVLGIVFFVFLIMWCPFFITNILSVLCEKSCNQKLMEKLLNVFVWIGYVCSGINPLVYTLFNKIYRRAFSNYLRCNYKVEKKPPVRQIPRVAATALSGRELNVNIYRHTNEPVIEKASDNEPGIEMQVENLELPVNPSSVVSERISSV

[8] = target: Fatty-acid amide hydrolase 1 (Homo sapiens, UniProt O00519); test: Binding assay; parameters: compound concentration 10 uM
Sequence of Fatty-acid amide hydrolase 1 (O00519 whole entry): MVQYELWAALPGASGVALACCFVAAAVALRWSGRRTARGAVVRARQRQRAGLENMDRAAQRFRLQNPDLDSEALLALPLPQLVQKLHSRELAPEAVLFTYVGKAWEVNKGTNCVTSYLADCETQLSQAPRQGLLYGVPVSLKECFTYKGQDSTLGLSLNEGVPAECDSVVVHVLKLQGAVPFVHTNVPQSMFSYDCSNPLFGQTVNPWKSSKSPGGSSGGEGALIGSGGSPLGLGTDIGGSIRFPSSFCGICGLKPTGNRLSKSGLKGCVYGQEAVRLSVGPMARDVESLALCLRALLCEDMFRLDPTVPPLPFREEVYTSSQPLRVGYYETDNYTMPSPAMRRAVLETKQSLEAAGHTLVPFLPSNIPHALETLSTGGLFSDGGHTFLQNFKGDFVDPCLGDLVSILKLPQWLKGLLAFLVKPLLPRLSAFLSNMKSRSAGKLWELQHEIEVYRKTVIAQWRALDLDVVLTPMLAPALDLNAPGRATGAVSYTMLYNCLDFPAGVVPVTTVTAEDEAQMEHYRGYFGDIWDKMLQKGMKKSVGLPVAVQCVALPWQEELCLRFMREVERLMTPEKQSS

Sequence of D(3) dopamine receptor (Homo sapiens) (P35462 whole entry): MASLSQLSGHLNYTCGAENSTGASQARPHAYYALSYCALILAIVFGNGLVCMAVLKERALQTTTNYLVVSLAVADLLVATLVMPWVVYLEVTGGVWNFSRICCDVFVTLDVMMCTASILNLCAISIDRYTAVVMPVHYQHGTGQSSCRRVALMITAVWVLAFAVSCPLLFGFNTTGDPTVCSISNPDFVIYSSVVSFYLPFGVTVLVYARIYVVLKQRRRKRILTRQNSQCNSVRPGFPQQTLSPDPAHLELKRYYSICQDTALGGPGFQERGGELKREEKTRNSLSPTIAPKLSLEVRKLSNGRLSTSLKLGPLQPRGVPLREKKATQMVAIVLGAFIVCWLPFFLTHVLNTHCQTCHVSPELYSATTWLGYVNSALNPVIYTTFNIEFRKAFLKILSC
Sequence of Type-1 angiotensin II receptor (Homo sapiens) (P30556 whole entry): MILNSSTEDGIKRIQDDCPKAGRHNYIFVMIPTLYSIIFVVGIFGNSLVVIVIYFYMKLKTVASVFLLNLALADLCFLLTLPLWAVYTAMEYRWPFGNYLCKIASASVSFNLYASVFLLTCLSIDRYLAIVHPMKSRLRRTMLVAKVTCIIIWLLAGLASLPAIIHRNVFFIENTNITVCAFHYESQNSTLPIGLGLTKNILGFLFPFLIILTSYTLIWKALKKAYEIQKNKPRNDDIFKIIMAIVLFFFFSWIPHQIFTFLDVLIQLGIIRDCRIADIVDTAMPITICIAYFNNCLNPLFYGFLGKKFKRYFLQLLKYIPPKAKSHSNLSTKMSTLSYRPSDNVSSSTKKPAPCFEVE
Sequence of Mu-type opioid receptor (Homo sapiens) (P35372 whole entry): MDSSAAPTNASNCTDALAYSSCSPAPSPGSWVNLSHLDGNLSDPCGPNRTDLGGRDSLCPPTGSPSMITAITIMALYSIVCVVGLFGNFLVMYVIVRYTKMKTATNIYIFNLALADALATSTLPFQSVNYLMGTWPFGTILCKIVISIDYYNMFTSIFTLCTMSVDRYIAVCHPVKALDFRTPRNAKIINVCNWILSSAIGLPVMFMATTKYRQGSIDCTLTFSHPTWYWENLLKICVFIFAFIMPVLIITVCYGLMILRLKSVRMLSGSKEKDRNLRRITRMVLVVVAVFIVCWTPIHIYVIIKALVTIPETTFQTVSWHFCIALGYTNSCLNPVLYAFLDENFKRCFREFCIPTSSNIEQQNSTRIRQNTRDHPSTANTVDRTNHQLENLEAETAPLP
Sequence of 5-hydroxytryptamine receptor 1A (Homo sapiens) (P08908 whole entry): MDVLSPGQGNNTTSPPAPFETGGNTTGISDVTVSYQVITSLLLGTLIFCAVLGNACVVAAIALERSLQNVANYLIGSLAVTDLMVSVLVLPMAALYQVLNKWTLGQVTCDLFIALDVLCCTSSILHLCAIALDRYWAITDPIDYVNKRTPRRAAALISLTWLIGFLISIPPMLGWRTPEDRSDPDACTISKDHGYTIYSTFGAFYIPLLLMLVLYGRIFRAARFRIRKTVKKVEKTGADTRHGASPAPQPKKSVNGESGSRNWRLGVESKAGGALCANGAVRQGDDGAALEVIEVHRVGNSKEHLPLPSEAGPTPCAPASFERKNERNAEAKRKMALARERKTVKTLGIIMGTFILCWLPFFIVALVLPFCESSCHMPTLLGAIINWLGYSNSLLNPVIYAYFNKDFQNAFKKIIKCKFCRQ
Sequence of Delta-type opioid receptor (Homo sapiens) (P41143 whole entry): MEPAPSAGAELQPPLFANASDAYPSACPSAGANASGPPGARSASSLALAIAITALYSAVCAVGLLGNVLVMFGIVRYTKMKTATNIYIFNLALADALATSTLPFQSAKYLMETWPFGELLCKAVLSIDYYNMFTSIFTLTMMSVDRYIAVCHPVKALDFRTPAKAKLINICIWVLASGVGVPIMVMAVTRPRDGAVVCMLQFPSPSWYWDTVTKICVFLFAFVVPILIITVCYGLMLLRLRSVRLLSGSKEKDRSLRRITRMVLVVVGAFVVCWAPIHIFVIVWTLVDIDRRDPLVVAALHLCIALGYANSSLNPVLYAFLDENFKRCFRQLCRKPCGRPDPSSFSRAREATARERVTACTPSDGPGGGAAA

| SMILES | inhibition [1] | inhibition [2] | inhibition [3] | inhibition [4] | inhibition [5] | inhibition [6] | inhibition [7] | IC50 [8] |
| --- | --- | --- | --- | --- | --- | --- | --- | --- |
| O=C(Nc1cccnn1)N1CCC(=Cc2cccc(Oc3ccc(C(F)(F)F)cn3)c2)CC1 | 3% | -8% | 12.3% | 20.2% | 3% | -10% | -3% | – |
| O=C(Nc1cccnn1)N1CC(C/C=C/c2cncc(Oc3ccc(C(F)(F)F)cn3)n2)C1 | – | – | – | – | – | – | – | > 100 µM (not active) |
